≈ marks a conversion by molar mass, not a printed value. Where two headings read alike, the source gives them in different places.
Assays:
[1] = system: VanA E. faecalis (BM 4166); assay: In vitro antimicrobial microdilution assay (MIC); assay type: cell-based, Enterococcus faecalis
[2] = system: VanA E. faecium (ATCC BAA-2317); assay: In vitro antimicrobial microdilution assay (MIC); assay type: cell-based, Enterococcus faecium
[3] = system: VanA E. faecalis (ATCC BAA-2573); assay: In vitro antimicrobial microdilution assay (MIC); assay type: cell-based, Enterococcus faecalis
[4] = system: VanA E. faecium (TX2465); assay: In vitro antimicrobial microdilution assay (MIC); assay type: cell-based, Enterococcus faecium
[5] = system: VanA VRE E. faecalis BM 4166 and E. faecium ATCC BAA-2317; assay type: cell-based, Enterococcus faecalis, Enterococcus faecium; conditions: 10 μM added at 5 minutes
Protocol: The above bacterial solution was subjected to a subculture to obtain fresh mid-log phase bacterial cells (incubation time=6 hours). The bacterial suspension was diluted to a total volume of 7 mL with OD600=0.6.
After the cultured bacteria were harvested (3000 rpm, 4° C., 20 minutes), the white bacterial precipitate was washed and resuspended in 5 mM glucose and 5 mM HEPES buffer (1:1, 5.00 mL, pH=7.2).

[6] = system: VanA VRE E. faecalis (BM 4166); assay: Impact of added LTA, phosphate, POPE on antimicrobial activity (MIC); assay type: cell-based, Enterococcus faecalis
Protocol: When NaH2PO4 or POPE was used instead of LTA, 10% brain-heart infusion broth containing 0.002% Tween®-80 with 100 μg/mL NaH2PO4 or 100 μg/mL POPE was used as the culture medium used for serial dilution. When additional G3 (H2N^+(CH2)3NHC(NH2)═NH2^+.2TFA) or Mg^2+ was used, 10% brain-heart infusion broth containing 0.002% Tween®-80 with 100 μg/mL G3 or 100 μg/mL MgCl2 and 100 μg/mL lipoteichoic acid was used as the culture medium for serial dilution of study group, 10% brain-heart infusion broth containing 0.002% Tween®-80 with 100 μg/mL G3 was used as the culture medium for serial dilution of control group.

[7] = system: two VanA VRE strains (E. faecalis BM4166, E. faecium ATCC BAA-2317); assay: Resistance development assay, durability (serial passaging at 0.5×MIC); assay type: cell-based, Enterococcus faecalis, Enterococcus faecium; conditions: 50 passages
Protocol: The lowest concentration of antibiotic (in μg/mL) capable of eliminating cell growth in the wells is the reported MIC value.
A new MIC assay was performed with the same protocol above. This process was repeated for 50 passages, and the fold increase in MIC was determined after each passage.

Compound | MIC, VanA E. faecalis BM 4166 [1] [µg/mL] | MIC, VanA E. faecium ATCC BAA-2317 [2] [µg/mL] | MIC, VanA E. faecalis ATCC BAA-2573 [3] [µg/mL] | MIC, VanA E. faecium TX2465 [4] [µg/mL] | other results
CN[C@H](CC(C)C)C(=O)N[C@H]1C(=O)N[C@@H](CC(N)=O)C(=O)N[C@H]2C(=O)NC3C(=O)N[C@H](C(=O)N[C@H](C(=O)NCCNC(=N)N)c4cc(O)cc(O)c4-c4cc3ccc4O)[C@H](O)c3ccc(c(Cl)c3)Oc3cc2cc(c3OC2OC(CO)C(O)[C@H](O)[C@@H]2O[C@H]2CC(C)(N)[C@H](O)[C@H](C)O2)Oc2ccc(cc2Cl)[C@H]1O (some centres unmarked) [Compound 6, G2-vancomycin] | 16 (≈ 10.4 µM) | 4 (≈ 2.61 µM) | 8 (≈ 5.22 µM) | 16 (≈ 10.4 µM) | 
CN[C@H](CC(C)C)C(=O)N[C@H]1C(=O)N[C@@H](CC(N)=O)C(=O)N[C@H]2C(=O)NC3C(=O)N[C@H](C(=O)N[C@H](C(=O)NCCCCNC(=N)N)c4cc(O)cc(O)c4-c4cc3ccc4O)[C@H](O)c3ccc(c(Cl)c3)Oc3cc2cc(c3OC2OC(CO)C(O)[C@H](O)[C@@H]2O[C@H]2CC(C)(N)[C@H](O)[C@H](C)O2)Oc2ccc(cc2Cl)[C@H]1O (some centres unmarked) [Compound 7, G4-vancomycin] | 16 (≈ 10.2 µM) | 4 (≈ 2.56 µM) | 4 (≈ 2.56 µM) | 16 (≈ 10.2 µM) | 
CN[C@H](CC(C)C)C(=O)N[C@H]1C(=O)N[C@@H](CC(N)=O)C(=O)N[C@H]2C(=O)NC3C(=O)N[C@H](C(=O)N[C@H](C(=O)NCCCCCCNC(=N)N)c4cc(O)cc(O)c4-c4cc3ccc4O)[C@H](O)c3ccc(c(Cl)c3)Oc3cc2cc(c3OC2OC(CO)C(O)[C@H](O)[C@@H]2O[C@H]2CC(C)(N)[C@H](O)[C@H](C)O2)Oc2ccc(cc2Cl)[C@H]1O (some centres unmarked) [Compound 8, G6-vancomycin] | 16 (≈ 10.1 µM) | 4 (≈ 2.52 µM) | 4 (≈ 2.52 µM) | 16 (≈ 10.1 µM) | 
CN[C@H](CC(C)C)C(=O)N[C@H]1C(=O)N[C@@H](CC(N)=O)C(=O)N[C@H]2C(=O)NC3C(=O)N[C@H](C(=O)N[C@H](C(=O)N[C@@H](CCCNC(=N)N)C(=O)OC)c4cc(O)cc(O)c4-c4cc3ccc4O)[C@H](O)c3ccc(c(Cl)c3)Oc3cc2cc(c3OC2OC(CO)C(O)[C@H](O)[C@@H]2O[C@H]2CC(C)(N)[C@H](O)[C@H](C)O2)Oc2ccc(cc2Cl)[C@H]1O (some centres unmarked) [Compound 10, Arg(OMe)-vancomycin] | 8 (≈ 4.94 µM) | 8 (≈ 4.94 µM) | 4 (≈ 2.47 µM) | 8 (≈ 4.94 µM) | 
CN[C@H](CC(C)C)C(=O)N[C@H]1C(=O)N[C@@H](CC(N)=O)C(=O)N[C@H]2C(=O)N[C@H]3C(=O)N[C@H](C(=O)N[C@H](C(=O)N[C@@H](CCCNC(=N)N)C(=O)O)c4cc(O)cc(O)c4-c4cc3ccc4O)[C@H](O)c3ccc(c(Cl)c3)Oc3cc2cc(c3OC2OC(CO)C(O)[C@H](O)C2O[C@H]2CC(C)(N)[C@H](O)[C@H](C)O2)Oc2ccc(cc2Cl)[C@H]1O (some centres unmarked) [Compound 11, Arg-vancomycin] |  |  |  |  | MIC ([1]; Enterococcus faecalis, read-out: MIC, VanA E. faecalis BM 4166): 63 µg/mL (≈ 39.2 µM); MIC ([2]; Enterococcus faecium, ATCCBAA2317, read-out: MIC, VanA E. faecium ATCC BAA-2317): 63 µg/mL (≈ 39.2 µM)
CN[C@H](CC(C)C)C(=O)N[C@H]1C(=O)N[C@@H](CC(N)=O)C(=O)N[C@H]2C(=O)NC3C(=O)N[C@H](C(=O)N[C@H](C(=O)N[C@@H](CCCNC(=N)N)C(N)=O)c4cc(O)cc(O)c4-c4cc3ccc4O)[C@H](O)c3ccc(c(Cl)c3)Oc3cc2cc(c3OC2OC(CO)C(O)[C@H](O)[C@@H]2O[C@H]2CC(C)(N)[C@H](O)[C@H](C)O2)Oc2ccc(cc2Cl)[C@H]1O (some centres unmarked) [Compound 12, Arg(NH2)-vancomycin] | 16 (≈ 9.97 µM) | 4 (≈ 2.49 µM) | 4 (≈ 2.49 µM) | 8 (≈ 4.99 µM) | 
CN[C@H](CC(C)C)C(=O)N[C@H]1C(=O)N[C@@H](CC(N)=O)C(=O)N[C@H]2C(=O)NC3C(=O)N[C@H](C(=O)N[C@H](C(=O)N[C@@H](CCCNC(N)=O)C(=O)OC)c4cc(O)cc(O)c4-c4cc3ccc4O)[C@H](O)c3ccc(c(Cl)c3)Oc3cc2cc(c3OC2OC(CO)C(O)[C@H](O)[C@@H]2O[C@H]2CC(C)(N)[C@H](O)[C@H](C)O2)Oc2ccc(cc2Cl)[C@H]1O (some centres unmarked) [Compound 13, Cit(OMe)-vancomycin] | 63 (≈ 38.9 µM) | 31 (≈ 19.1 µM) | 16 (≈ 9.87 µM) | 63 (≈ 38.9 µM) | 
CN[C@H](CC(C)C)C(=O)N[C@H]1C(=O)N[C@@H](CC(N)=O)C(=O)N[C@H]2C(=O)NC3C(=O)N[C@H](C(=O)N[C@H](C(=O)NC(CNC(=N)N)CNC(=N)N)c4cc(O)cc(O)c4-c4cc3ccc4O)[C@H](O)c3ccc(c(Cl)c3)Oc3cc2cc(c3OC2OC(CO)C(O)[C@H](O)[C@@H]2O[C@H]2CC(C)(N)[C@H](O)[C@H](C)O2)Oc2ccc(cc2Cl)[C@H]1O (some centres unmarked) [Compound 14, DiG-vancomycin] | 8 (≈ 4.99 µM) | 1 (≈ 0.623 µM) | 2 (≈ 1.25 µM) | 4 (≈ 2.49 µM) | 
CN[C@H](CC(C)C)C(=O)N[C@H]1C(=O)N[C@@H](CC(N)=O)C(=O)N[C@H]2C(=O)N[C@H]3C(=O)N[C@H](C(=O)N[C@H](C(=O)N[C@@H](CCCNC(=N)N)C(=O)O)c4cc(O)cc(O)c4-c4cc3ccc4O)[C@H](O)c3ccc(c(Cl)c3)Oc3cc2cc(c3OC2OC(CO)C(O)[C@H](O)C2O[C@H]2CC(C)(NCc3ccc(-c4ccc(Cl)cc4)cc3)[C@H](O)[C@H](C)O2)Oc2ccc(cc2Cl)[C@H]1O (some centres unmarked) [Compound 21, Arg-CBP-vancomycin] |  |  |  |  | bacterial cell membrane permeabilization [5]: reduced bacteria cell permeabilization
CN[C@H](CC(C)C)C(=O)N[C@H]1C(=O)N[C@@H](CC(N)=O)C(=O)N[C@H]2C(=O)N[C@H]3C(=O)N[C@H](C(=O)N[C@H](C(=O)N[C@@H](CCCNC(N)=O)C(=O)OC)c4cc(O)cc(O)c4-c4cc3ccc4O)[C@H](O)c3ccc(c(Cl)c3)Oc3cc2cc(c3OC2OC(CO)C(O)[C@H](O)C2O[C@H]2CC(C)(NCc3ccc(-c4ccc(Cl)cc4)cc3)[C@H](O)[C@H](C)O2)Oc2ccc(cc2Cl)[C@H]1O (some centres unmarked) [Compound 23, Cit(OMe)-CBP-vancomycin] |  |  |  |  | bacterial cell membrane permeabilization [5]: reduced bacteria cell permeabilization
CN[C@H](CC(C)C)C(=O)N[C@H]1C(=O)N[C@@H](CC(N)=O)C(=O)N[C@H]2C(=O)N[C@H]3C(=O)N[C@H](C(=O)N[C@H](C(=O)N[C@@H](CCCNC(=N)N)C(=O)OC)c4cc(O)c(CN[C@@H](CCCNC(=N)N)C(=O)OC)c(O)c4-c4cc3ccc4O)[C@H](O)c3ccc(c(Cl)c3)Oc3cc2cc(c3OC2OC(CO)C(O)[C@H](O)C2O[C@H]2CC(C)(N)[C@H](O)[C@H](C)O2)Oc2ccc(cc2Cl)[C@H]1O (some centres unmarked) [Compound 28, Arg(OMe)-Arg(OMe)^Ar-vancomycin] |  |  |  |  | MIC ([1]; Enterococcus faecalis; read-out: MIC, VanA E. faecalis BM 4166): 8 µg/mL (≈ 4.4 µM); MIC ([2]; Enterococcus faecium, ATCCBAA2317; read-out: MIC, VanA E. faecium ATCC BAA-2317): 2 µg/mL (≈ 1.1 µM); MIC ([3]; Enterococcus faecalis, ATCCBAA2573, read-out: MIC, VanA E. faecalis ATCC BAA-2573): 1 µg/mL (≈ 0.55 µM); MIC ([4]; Enterococcus faecium, read-out: MIC, VanA E. faecium TX2465): 8 µg/mL (≈ 4.4 µM)
N=C(N)NCCCN [G3^+, H2N(CH2)3NHC(═NH2)NH2^+] |  |  |  |  | MIC ([6]; E. faecalis BM 4166, POPE 100 μg/mL, read-out: MIC, +POPE): > 800 µg/mL; MIC ([6]; E. faecalis BM 4166, read-out: MIC, −POPE): > 800 µg/mL
CCCCCCCCCC(=O)N[C@@H](Cc1c[nH]c2ccccc12)C(=O)N[C@H](CC(N)=O)C(=O)N[C@@H](CC(=O)O)C(=O)N[C@@H]1C(=O)NCC(=O)N[C@@H](CCCN)C(=O)N[C@@H](CC(=O)O)C(=O)N[C@H](C)C(=O)N[C@@H](CC(=O)O)C(=O)NCC(=O)N[C@H](CO)C(=O)N[C@@H]([C@H](C)CC(=O)O)C(=O)N[C@@H](CC(=O)c2ccccc2N)C(=O)O[C@@H]1C [daptomycin] |  |  |  |  | resistance acquisition on serial passaging [7]: raise resistance more rapidly and in a more pronounced manner
CC(=O)NC[C@H]1CN(c2ccc(N3CCOCC3)c(F)c2)C(=O)O1 [linezolid] |  |  |  |  | resistance acquisition on serial passaging [7]: raise resistance more rapidly and in a more pronounced manner
CN(C)c1cc(NC(=O)CNC(C)(C)C)c(O)c2c1C[C@H]1C[C@H]3[C@H](N(C)C)C(O)=C(C(N)=O)C(=O)[C@@]3(O)C(O)=C1C2=O [tigecycline] |  |  |  |  | resistance acquisition on serial passaging [7]: raise resistance more rapidly and in a more pronounced manner

Reference: US20230146239A1 (THE SCRIPPS RESEARCH INSTITUTE, priority 2020, published 2023)
